Measured values: paper PMC11448502, “Cryo-EM structures of the human P2X1 receptor reveal subtype-specific architecture and antagonism by supramolecular ligand-binding” (Nature Communications, 2024)
Residue numbers refer to the chain shown, from its start. Values joined by “and” are separate entries in the source; they are usually repeats but may differ in a detail not shown here. Equal values may be shown once. “Also recorded” adds a separate entry of the source.

Assays:
Assay in all cases: ATP dose response (EC50), TEVC in oocytes
Assay type in all cases: cell-based
hP2X1 K309A = target: T1, hP2X1 K309A (Homo sapiens, UniProt P51575, K309A)
T1 construct: hP2X1 mRNA that was made from linearized full-length wild-type or mutant pcDNA 3.1x; expressed in transfected cells; host or cells: Xenopus laevis oocytes (mRNA injection)
T1 sequence (P51575 1-399 K309A): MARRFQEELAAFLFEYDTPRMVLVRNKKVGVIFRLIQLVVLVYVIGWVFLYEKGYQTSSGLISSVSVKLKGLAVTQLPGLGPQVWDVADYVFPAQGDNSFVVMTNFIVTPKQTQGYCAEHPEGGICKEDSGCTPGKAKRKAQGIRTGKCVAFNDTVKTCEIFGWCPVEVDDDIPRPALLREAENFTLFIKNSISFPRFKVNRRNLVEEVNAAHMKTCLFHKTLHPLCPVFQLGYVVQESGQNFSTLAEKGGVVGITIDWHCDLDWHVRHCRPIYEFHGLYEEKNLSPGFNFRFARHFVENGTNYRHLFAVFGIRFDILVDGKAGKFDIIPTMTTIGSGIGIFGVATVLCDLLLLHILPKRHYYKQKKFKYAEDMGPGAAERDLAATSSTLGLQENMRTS
Protocol: (§1) Oocytes were purchased defolliculated from Ecocyte Bioscience in Barth’s Solution (88 mM NaCl, 1 mM KCl, 0.82 mM MgSO4, 0.33 mM Ca(NO3)2, 0.41 mM CaCl2, 2.4 mM NaHCO3, 5 mM Tris-HCl) supplemented with penicillin (100 U/mL) and streptomycin (100 µg/mL). Xenopus laevis oocytes were then injected with 50 nL of 100 ng/μL hP2X1 mRNA that was made from linearized full-length wild-type or mutant pcDNA 3.1x according to the protocol provided in the mMessage mMachine kit (Invitrogen). Injected oocytes were allowed to express for ~20 hours at 18 °C before recording was performed.
(§2) Data acquisition was performed using the Oocyte Clamp OC-725C amplifier and pClamp 8.2 software. Buffers were applied using a gravity fed RSC-200 Rapid Solution Changer that flows at ~5 mL/min. All experiments use Sutter filamented glass 10 cm in length with an inner diameter of 0.69 mm and an outer diameter of 1.2 mm to impale oocytes and clamp the holding voltage at −60 mV. Experiments were recorded in buffer containing 10 mM HEPES (pH 7.4), 140 mM NaCl, 5 mM KCl, 2 mM CaCl2, 2 mM MgCl2, and 10 mM glucose.
(§3) Excitatory responses to a dilution series of ATP between 6.4 nM and 10 mM were examined across the different mutants. Each evoked response was normalized to an initial ATP-induced current evoked by the following concentrations: 500 µM ATP for R292A, 2 mM ATP for K309A, and 100 µM ATP for the remaining mutants and wild-type receptor. The data was fit in Prism 9 using the nonlinear regression named “EC50, x is concentration” to afford EC50 values. This value was then averaged amongst each singular condition and reported as an average plus or minus the standard deviation.

hP2X1 K136A = target: T2, hP2X1 K136A (Homo sapiens, UniProt P51575, K136A)
T2 construct: hP2X1 mRNA that was made from linearized full-length wild-type or mutant pcDNA 3.1x; expressed in transfected cells; host or cells: Xenopus laevis oocytes (mRNA injection)
T2 sequence (P51575 1-399 K136A): T1 sequence (P51575 1-399 K309A) with K136A, A309K
Protocol: as §1, §2, §3

hP2X1 K249A = target: T3, hP2X1 K249A (Homo sapiens, UniProt P51575, K249A); conditions: for Normalized Current: hP2X1 K249A
T3 construct: hP2X1 mRNA that was made from linearized full-length wild-type or mutant pcDNA 3.1x; expressed in transfected cells; host or cells: Xenopus laevis oocytes (mRNA injection)
T3 sequence (P51575 1-399 K249A): T1 sequence (P51575 1-399 K309A) with K249A, A309K
Protocol: as §1, §2, §3

hP2X1 WT = target: T4, hP2X1 WT (Homo sapiens, UniProt P51575)
T4 construct: hP2X1 mRNA that was made from linearized full-length wild-type or mutant pcDNA 3.1x; expressed in transfected cells; host or cells: Xenopus laevis oocytes (mRNA injection)
T4 sequence (P51575 1-399): T1 sequence (P51575 1-399 K309A) with A309K
Protocol: as §1, §2, §3

EC50 of ATP (hP2X1 K309A; TEVC): impacted
Normalized Current (hP2X1 K309A; [ATP] 1.000E-02 M): 1.006 and 0.9573 and 1.036
Normalized Current (hP2X1 K309A; [ATP] 2.000E-03 M): 0.8423 and 0.8039 and 0.8072
Normalized Current (hP2X1 K309A; [ATP] 3.200E-06 M): 0.000000
Normalized Current (hP2X1 K309A; [ATP] 4.000E-04 M): 0.3324 and 0.3289 and 0.2846
EC50 of ATP (hP2X1 K136A; TEVC): did not affect
Normalized Current (hP2X1 K136A; [ATP] 1.000E-04 M): 0.9825 and 0.9019 and 0.8989
Normalized Current (hP2X1 K136A; [ATP] 2.000E-05 M): 0.8446 and 0.8328 and 0.7216
Normalized Current (hP2X1 K136A; [ATP] 4.000E-06 M): 0.7216 and 0.6921 and 0.6232
Normalized Current (hP2X1 K136A; [ATP] 5.000E-04 M): 1.035 and 0.9912 and 0.9735
Normalized Current (hP2X1 K136A; [ATP] 8.000E-07 M): 0.3703 and 0.2936 and 0.2241
Normalized Current (hP2X1 K249A; [ATP] 1.000E-04 M): 1.03 and 1.005 and 0.9647
Normalized Current (hP2X1 K249A; [ATP] 2.000E-05 M): 1.005 and 0.9326 and 0.8353
Normalized Current (hP2X1 K249A; [ATP] 4.000E-06 M): 0.7721 and 0.7584 and 0.7231
Normalized Current (hP2X1 K249A; [ATP] 8.000E-07 M): 0.6172 and 0.5832 and 0.5545
EC50 (hP2X1 WT; TEVC, Xenopus laevis oocytes, mean ± SD, triplicate, read-out: apparent affinity (EC50) of ATP): 1700 ± 300 nM
Normalized Current (hP2X1 WT; [ATP] 1.000E-04 M): 1.041 and 0.9705 and 0.9151
Normalized Current (hP2X1 WT; [ATP] 1.600E-07 M): 0.08801 and 0.07128 and 0.05984
Normalized Current (hP2X1 WT; [ATP] 4.000E-06 M): 0.7387 and 0.5911 and 0.5682
Normalized Current (hP2X1 WT; [ATP] 5.000E-04 M): 1.055 and 1.025 and 0.9207
Normalized Current (hP2X1 WT; [ATP] 8.000E-07 M): 0.4523 and 0.3946 and 0.3316
Hill slope of activation by ATP (hP2X1 WT; mean ± SD of three EC50 traces): 0.9 ± 0.2
SMILES: Nc1ncnc2c1ncn2[C@@H]1O[C@H](COP(=O)(O)OP(=O)(O)OP(=O)(O)O)[C@@H](O)[C@H]1O [ATP]
apparent affinity (EC50) of ATP, effect of mutation (hP2X1 K249A; hP2X1 K249A vs wild-type, TEVC): do not appear to significantly change; also recorded: no major effect; also recorded: moderately increases
